Here are results for 5 molecules from patent publication EP2246329A1, “4(1H)-pyridinone derivatives and their use as antimalaria agents” (Glaxo Group Limited, priority 2009, dated 2010).

The subject of the test is Plasmodium falciparum. Description: In vitro anti-malarial activity against Plasmodium falciparum, IC50 assay / [3H]-Hypoxanthine incorporation assay. The test is classed as cell-based. To be noted: Erythrocyte; Plasmodium falciparum strains in parasitized red blood cells, [3H]-hypoxanthine incorporation, 48 hours at 37°C. Here is the method: The compounds of this invention may be tested in one of several biological assays to determine the concentration of compound which is required to have a given pharmacological effect. In vitro anti-malarial activity against Plasmodium falciparum. IC50 assay / [^3H]-Hypoxanthine assay
The culture medium comprised RPMI 1640 with 25mM HEPES, sodium bicarbonate and glutamine (GIBCO™ cat. ref.: 52400), supplemented with 10% of pooled human sera AB (Irvine Scientific, cat. ref.: 5009) and HT supplement (0.15 mM hypoxanthine and 24 µM thymidine), (GIBCO™ cat. ref.: 41065). Human sera were decomplemented 30 min. at 56°C, aliquoted and stored frozen at -20°C until use in this culture medium.
This culture medium ("complete medium") was usually prepared fresh just before use and pre-warmed to 37°C.
Red blood cells O+ stock suspensions were prepared from whole blood bags coming from incomplete blood donation, provided by the Spanish Red Cross (<25 days after sampling). This "whole blood" was aliquoted and stored at 4°C.
To prepare red blood cells for the assay, the whole blood was centrifuged and washed 3 times with RPMI without serum. The upper phase, containing white blood cells was removed. The washed red blood cells were kept as a 50 % suspension in complete medium. The prepared cells were stored at 4°C and were employed in the assay at any time up to 4 days after preparation.
Test compounds were dissolved at 2 mg/ml in 100% DMSO on the day of the assay. If necessary, complete dissolution was achieved by gentle heating (the mixture was heated at a temperature <37°C) and sonication (sonication bath).
For IC50 determinations, 10 serial 2-fold dilutions were prepared in complete medium in the presence of a constant amount of DMSO. Any obvious signs of insolubility of the stock solutions in 100% DMSO or precipitation when these solutions were diluted in assay media, were recorded.
Plasmodium falciparum strains were maintained in complete medium at an hematocrit of 5% in continuous culture using a method adapted from that published by Trager and Jensen(1) and Traeger(2).
The parasitemia was calculated by counting the percentage of parasitized erythrocytes by optical microscopy. Thin films of blood were made every day from each culture flask, fixed with methanol and stained for 10 min. in Giemsa (Merck, cat. ref.: 1.09204) at 10 % in buffered water pH 7.2. The glass slides were observed and counted with an optical microscope (Nikon, Eclipse E200) equipped with a 100 X immersion oil objective.
The culture was maintained at an hematocrit of 5%, with a daily change of medium and was diluted when parasitemia had reached about 5%.
[^3H] Hypoxanthine incorporation assay was conducted using a method adapted from Desjardins et al. (3). The assays were performed in 96 wells flat bottom microplates. • 1. Serial dilutions of the test compounds (50µl of a 5X solution / well) were deposited in duplicate. Compounds of the invention were tested in this assay. Chloroquine and Atovaquone were used as control compounds for each assay. • 2. […] [^3H]-Hypoxanthine (Amersham Biosciences, cat. ref.: TRK74) was added extemporaneously to the inoculum suspension at a concentration of 1 µCi/ml (equating to […]). 200 µl of the resulting suspension was distributed into each well (other than the control well H12 described below) leading to a final volume of 250 µl per well, at 2% of hematocrit and 0.5 % of parasitemia / well. • 4. […]
As for `Cc1[nH]c(CO)c(-c2ccc(-c3ccc(CN4CCC(c5ccc(OC(F)(F)F)cc5)CC4)cc3)cc2)c(=O)c1Cl.Cl` [Example 62, 3-chloro-6-(hydroxymethyl)-2-methyl-5-{4'-[(4-{4-[(trifluoromethyl)oxy]phenyl}-1-piperidinyl)methyl]-4-biphenylyl}-4(1H)-pyridinone hydrochloride], the IC50 is < 0.125 µg/mL.
On to `Cc1[nH]c(CO)c(Cl)c(=O)c1-c1ccc(-c2ccc(CN3CCC(c4ccc(OC(F)(F)F)cc4)CC3)cc2)cc1.Cl` [Example 63, 3-chloro-2-(hydroxymethyl)-6-methyl-5-{4'-[(4-{4-[(trifluoromethyl)oxy]phenyl}-1-piperidinyl)methyl]-4-biphenylyl}-4(1H)-pyridinone hydrochloride], for which the IC50 was < 0.125 µg/mL.
Turning to `Cc1[nH]c(C)c(-c2ccc(-c3ccc(CN4CCC(c5ccc(OC(F)(F)F)cc5)CC4)cc3)nc2)c(=O)c1Cl.Cl` [Example 64, 5-chloro-2,6-dimethyl-6'-{4-[(4-{4-[(trifluoromethyl)oxy]phenyl}-1-piperidinyl)methyl]phenyl}-3,3'-bipyridin-4(1H)-one hydrochloride], the IC50 was < 0.125 µg/mL.
On to `Cc1[nH]c(C)c(-c2ccc(C(F)(F)CN3CCC(C(F)(F)F)CC3)nc2)c(=O)c1Cl` [Example 67, 5-chloro-6'-{1,1-difluoro-2-[4-(trifluoromethyl)-1-piperidinyl]ethyl}-2,6-dimethyl-3,3'-bipyridin-4(1H)-one], for which the IC50 is < 0.125 µg/mL.
Molecule `Cc1[nH]c(C)c(-c2ccc(OCCN3CCC(C(F)(F)F)CC3)nc2)c(=O)c1Cl.Cl` [Example 68, 5-chloro-2,6-dimethyl-6'-({2-[4-(trifluoromethyl)-1-piperidinyl]ethyl}oxy)-3,3'-bipyridin-4(1H)-one hydrochloride] yielded an IC50 of 0.21 µg/mL.
